Assay results: patent publication US11484529B2, “Desmethylanethole trithione derivatives for the treatment of diseases linked to mitochondrial reactive oxygen species (ROS) production” (OP2 Drugs, priority 2017, dated 2022)

Tests used:
[1] = tested on: diet-induced obese (DIO) mice; assay: Chronic treatment in diet-induced obese mice (body weight, body composition, ITT, glucose); type: in vivo, mouse; conditions: for AUC of glucose during ITT: mean±SEM, vehicle 12812.50±750.35
Description: The aim of the study was to determine whether the compound AOL, administered daily at the doses of 5 mg/kg and 10 mg/kg for up to five weeks by intraperitoneal (i.p.) daily administration in diet-induced obese (DIO) mice fed with a high-fat diet (HFD), modifies food intake, body weight, adiposity and glucose metabolism.
Mice were fed ad libitum with a HFD (60% of calories from fat, mostly lard) for twelve weeks before the pharmacological study begun. Animals received AOL or its vehicle by intraperitoneal (i.p.) administration and were maintained on HFD for the length of the study. Food intake and body weight were measured daily and recorded for up to three consecutive weeks.
Thirty 7-weeks-old male C57/B16J mice arrived to the laboratory on 25 Feb. 2016 and underwent a first in vivo body composition analysis (Echo MRI 900, EchoMRI Systems) after 1 week of adaptation to the experimental housing room. After this first MRI analysis, animals were fed a high-fat diet (HFD) ad libitum for a period of twelve weeks. Thereafter, they underwent a second MRI analysis and were distributed into 3 experimental groups of equivalent body weight and body composition.
Once the pharmacological treatment started (day 1), food intake (FI) and body weight (BW) were measured daily before the dark phase in animals housed in their home cage. Spillage of food was checked daily. The food consumed was calculated by subtracting the food left in the hoppers from the initial pre-weighted amount. FI and BW were measured for three consecutive weeks. Afterwards animals underwent a third MRI analysis in order to observe potential effects of the treatment onto the body composition (changes in fat and lean mass), followed by a glucose tolerance test (GTT) and an insulin tolerance test (ITT). Mice received daily i.p. administration of AOL or its vehicle for a total length of five weeks, until they were sacrificed.
A nuclear echo magnetic resonance imaging whole-body composition analyzer (Echo MRI 900; EchoMedical Systems) was used to repeatedly assess body fat and lean mass in conscious mice.
Animals were injected i.p. with 1.5 g/kg of D-Glucose (Sigma-Aldrich) for the GTT or with 0.5 U/kg of insulin (Humulin, Lilly, France) for the ITT. For the GTT and the ITT, animals were fasted overnight. The tests were conducted the following morning. Blood samples were taken from the tail vein at different time points (0, 15, 30, 60, 90 and 120 minutes after the i.p. administration of glucose or insulin) and glucose concentration was measured using glucose sticks (OneTouch Vita, Lifescan France, Issy les Moulineaux, France).
At sacrifice, blood samples were collected, blood glucose was rapidly assessed using glucose sticks and blood samples were then centrifuged at 3000 rpm for 15 minutes. The obtained plasma was stored at −80° C. for subsequent measurement of insulin, which was carried out by performing an ELISA (kit from Mercodia, Uppsala, Sweden), according to the manufacturer's instructions.

[2] = tested on: isolated pancreatic islets from mice; assay: Glucose-stimulated insulin secretion (GSIS) in isolated pancreatic islets; type: cell-based, mouse; conditions: AOL 10 and 20 μM, 1 hour
Description: Pancreatic islets were isolated using the collagenase digestion method. Briefly, pancreas was inflated with Hanks solution containing 0.33 mg/mL of collagenase (Sigma-Aldrich), 5.6 mM glucose and 1% bovine serum albumin, pH 7.35, removed and kept at 37° C. for 6-9 minutes. After tissue digestion and exocrine removal by three consecutive washes, the islets were manually collected, under a binocular magnifier. Islets were left recovering from digestion by culturing for 20-24 hours in RPMI-1640 medium containing 11 mM glucose (Invitrogen, CA, USA) and supplemented with 2 mM glutamine, 200 IU/mL penicillin, 200 μg/mL streptomycin and 8% fetal bovine serum stripped with charcoal-dextran (Invitrogen).
For each static GSIS experiment, islets from two mice were first incubated for 2 hours at 37° C. in 3 mL Krebs-bicarbonate buffer solution (in mM): […] and 3 glucose, equilibrated with a mixture of 95% 02:5% C02, pH 7.4. […] Insulin secretion in each well was calculated as ng of insulin per islet and per hour of incubation, and then expressed as percentage of insulin secretion in 11 mM glucose vehicle group, which was considered 100%.

[3] = tested on: H460 carcinoma cells; assay: Transwell cell migration (metastatic activity); type: cell-based, human; conditions: AOX 5 and 10 μM, 16 hours
Description: Cell migration assays were performed in Transwells (Corning Inc., 8.0-μm pore size). For migration assay, 2·10^4 cells in serum-free medium were added to the upper wells. Media containing 10% FBS were added to the lower wells. Cells that migrated through the filter after 16 hours were stained with 0.2% crystal violet and counted using the software Image J.
The Transwell test of cell migration has been utilized for this assay and the migration of H460 carcinoma cells has been measured in the presence of two different concentrations of AOX (5 and 10 μM) and compared to the effect of 100 μM N-acetyl cystein (NAC) as a positive control of cytosolic ROS production (FIG. 25).

SMILES	effect on body weight ([1]; 5 and 10 mg/kg i.p. daily, HFD, three weeks)	AUC of glucose during ITT ([1]; AOL 5 mg/kg)	action of insulin on circulating glucose levels during an ITT ([1]; AOL 10 mg/kg)	AUC of glucose during ITT ([1]; AOL 10 mg/kg)	blood glucose levels ([1]; after five weeks of treatment, 2-hour fasted mice)	lean mass ([1]; after three weeks of chronic administration)	fat mass ([1]; after three weeks of chronic administration, p=0.13)	body weight and food intake ([1]; chronic daily administration, data not shown)	GSIS increase as compared to the 11 mM glucose vehicle group [2]	metastatic activity (cells crossing the membrane) [3]
COc1ccc(-c2cc(=S)ss2)cc1 [AOL, 5-(4-methoxyphenyl)-3H-1,2-dithiole-3-thione]	did not have a significant effect	15006.56±1139.69	significantly blunted the action of insulin	18168.33±1562.90	tended to decrease blood glucose levels	did not have any effect on lean mass	tended to reduce fat mass	tended to decrease body weight and food intake	65-75%	–
Oc1ccc(-c2cc(=S)ss2)cc1 [AOX, 5-(4-hydroxyphenyl)-3H-1,2-dithiole-3-thione]	–	–	–	–	–	–	–	–	–	absence of induction of metastatic activity
